Source: patent publication US20250177351A1, “ISOINDOLINE COMPOSITIONS AND METHODS FOR TREATING NEURODEGENERATIVE DISEASE” (Cognition Therapeutics, Inc., priority 2022, published 2025)

Experiments:
[1] = test system: CSF biomarkers (Aβ42, Aβ40, total tau, phosphorylated tau, NFL and neurogranin); experiment: Phase 1b/2a trial: CSF Alzheimer's disease biomarkers by ELISA; format: in vivo, human; details: AD patients, before and after treatment
Description: (§1) COG0102 clinical trial: This trial (ClinicalTrials.gov NCT02907567) was a randomized, double-blind, placebo-controlled clinical trial in mild to moderate Alzheimer's patients (MMSE 18-26) (See FIG. 1 for clinical trial design). The trial was conducted at six sites in Australia. Patients were randomized into placebo (n=5) or CT1812-treated groups: 90 mg (n=4), 280 mg (n=5) or 560 mg (n=5) and treated once daily for 28 days. Clinical chemistry was done at Sydpath (Sydney, AU). Pharmacokinetics were done at CPR Pharma Services (Adelaide, AU). Cerebrospinal fluid samples were taken at screening and day 21-28 of treatment and aliquoted. […] One set of CSF samples was analyzed for Alzheimer's disease biomarkers; protein measurements (Aβ42, Aβ40, total tau, tau phosphorylated at threonine 181 (phosphorylated tau), NFL and neurogranin) were performed using commercially available ELISA assays from Fujirebio according to the manufacturer's instructions (INNOTEST β-AMYLOID(1-42), INNOTEST β-AMYLOID(1-40), INNOTEST hTau Ag, INNOTEST PHOSPHO-TAU(181P), Uman Diagnostics NFL assay). Neurogranin was measured with a sandwich ELISA method using antibodies Ng2 and Ng22 developed at the University of Gotteborg (Kvartsberg et al. 2015). Identical aliquots of CSF, and plasma were analyzed for protein expression changes via LC/MSMS at Caprion (see below).

[2] = molecular target: T1, Sigma-2/PGRMC1 receptor complex (Homo sapiens, UniProt Q5BJF2); experiment: Phase 1b/2a trial: pharmacokinetics and estimated brain receptor occupancy; format: in vivo; details: AD patients, 90-560 mg, day 28
T1 construct: from tissue; host or cells: brain of trial patients, in vivo (occupancy estimated from CSF drug concentration, not measured)
Description: as §1

[3] = Phase 1 SAD study: safety assessments; format: in vivo, human
Description: Part A was a single ascending dose cohort study in which healthy, young subjects (less than 65 years old) received one dose of study drug in the morning after an overnight fast. Cohort dosing started at 10 mg and increased to 30 mg, 90 mg, 180 mg, 450 mg, and 1120 mg in subsequent cohorts. Six drug-treated and two placebo-treated subjects were randomized in each cohort. A seventh cohort of six subjects each received a single 90 mg dose of drug 30 min. after a meal. Following completion of all safety assessments and blood draws for PK analyses, subjects were discharged on Day 3.
Safety variables, including incidence of adverse events (AEs), vital signs, clinical laboratory findings, 12-lead electrocardiographs (ECGs), physical examination, and affective and cognitive measures (Part B only), were summarized for all subjects who received study drug.

[4] = Aged transgenic mouse models of AD; format: in vivo
sigma-2 receptor complex = molecular target: T2, sigma-2 receptor complex (Mus musculus, UniProt Q8VD00); experiment: Projected receptor occupancy from human CSF concentrations, based on mouse Alzheimer's disease models; format: in vivo
T2 construct: from tissue; host or cells: brain, in vivo (projection from human CSF concentrations; occupancy itself determined in transgenic mouse brain)
T2 sequence (Q8VD00 1-176): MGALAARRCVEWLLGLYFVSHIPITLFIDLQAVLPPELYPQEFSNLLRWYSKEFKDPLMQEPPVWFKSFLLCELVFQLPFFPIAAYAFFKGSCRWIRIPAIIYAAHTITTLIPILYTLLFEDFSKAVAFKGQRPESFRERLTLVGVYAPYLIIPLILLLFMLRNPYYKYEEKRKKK
Description: Horizontal lines indicate projected receptor occupancy based on concentration and receptor occupancy determined in pre-clinical mouse Alzheimer's disease models.
At the 840 mg dose, CSF levels reached those associated with 98% receptor occupancy.

T1 sequence (Q5BJF2 whole entry, one chain of several): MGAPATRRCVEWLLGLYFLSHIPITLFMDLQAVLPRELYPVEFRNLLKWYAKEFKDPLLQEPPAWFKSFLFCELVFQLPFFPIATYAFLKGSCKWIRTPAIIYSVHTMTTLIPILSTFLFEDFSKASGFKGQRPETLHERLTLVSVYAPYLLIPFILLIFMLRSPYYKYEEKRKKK

SMILES: CC(C)(C)Oc1cc(CCC(C)(C)N2Cc3ccc(S(C)(=O)=O)cc3C2)ccc1O [CT1812]
- biomarker levels (Aβ, tau, NFL) in CSF [1]: remain unchanged
- increase of plasma concentration with dose [2]: approximately dose proportionally
- ECG ([3]; SAD): No ECG parameters or changes were assessed as clinically significant
- clinical laboratory results ([3]; SAD): no subjects with clinically significant laboratory results
- Number of Subjects with Treatment-Emergent AE: All TEAEs ([3]; SAD Total Active (n = 42)): 18
- Number of Subjects with Treatment-Emergent AE: Headache ([3]; SAD Total Active (n = 42)): 6
- Number of Subjects with Treatment-Emergent AE: Nausea ([3]; SAD Total Active (n = 42)): 6
- Number of Subjects with Treatment-Emergent AE: All TEAEs ([3]; SAD fasted 10 mg (n = 6)): 2
- Number of Subjects with Treatment-Emergent AE: All TEAEs ([3]; SAD fasted 30 mg (n = 6)): 4
- Number of Subjects with Treatment-Emergent AE: Headache ([3]; SAD fasted 30 mg (n = 6)): 3
- Number of Subjects with Treatment-Emergent AE: Nausea ([3]; SAD fasted 30 mg (n = 6)): 1
- Number of Subjects with Treatment-Emergent AE: All TEAEs ([3]; SAD fasted 180 mg (n = 6)): 2
- Number of Subjects with Treatment-Emergent AE: All TEAEs ([3]; SAD fasted 450 mg (n = 6)): 4
- Number of Subjects with Treatment-Emergent AE: Headache ([3]; SAD fasted 450 mg (n = 6)): 1
- Number of Subjects with Treatment-Emergent AE: Nausea ([3]; SAD fasted 450 mg (n = 6)): 2
- Number of Subjects with Treatment-Emergent AE: All TEAEs ([3]; SAD fasted 1120 mg (n = 6)): 4
- Number of Subjects with Treatment-Emergent AE: Headache ([3]; SAD fasted 1120 mg (n = 6)): 1
- Number of Subjects with Treatment-Emergent AE: Nausea ([3]; SAD fasted 1120 mg (n = 6)): 3
- Number of Subjects with Treatment-Emergent AE: All TEAEs ([3]; SAD fed 90 mg (n = 6)): 2
- Number of Subjects with Treatment-Emergent AE: Headache ([3]; SAD fed 90 mg (n = 6)): 1
- deaths or serious adverse events ([3]; SAD, 10 mg to 1120 mg): no deaths or other serious adverse events
- tolerability ([3]; single dose 10 mg to 1120 mg, healthy subjects): well tolerated
- cognitive performance ([4]; aged transgenic mouse models of AD): restoring normal cognitive performance
- inflammatory protein expression in CSF ([4]; chronic treatment of aged transgenic mice, efficacious doses, LC/MSMS): significantly reduces
- receptor occupancy at 560 mg (sigma-2 receptor complex; 560 mg dose, read-out: receptor occupancy in transgenic mouse brain associated with human CSF level): 95%
- receptor occupancy in mouse brain equivalent to average human CSF concentrations (sigma-2 receptor complex; 560 mg-840 mg dose range, 1.5 hr post-dose): 97-98%
- receptor occupancy at 840 mg (sigma-2 receptor complex; 840 mg dose, read-out: receptor occupancy associated with human CSF level): 98%
